According to patent US20200171065A1, “METHOD FOR TREATING LIVER DISEASE WITH KINSENOSIDE” (HUAZHONG UNIVERSITY OF SCIENCE AND TECHNOLOGY, priority 2017, published 2020):
Entries after “also recorded” stand apart in the source; their conditions may differ. Where two headings read alike, the source gives them in different places.

Key:
[1] = test system: C57 mice with D-GalN/LPS acute liver failure; experiment: Acute liver failure induced by D-GalN + LPS; type: in vivo
Procedure: 60 SPF male C57 mice were purchased and raised in the SPF experimental animal center of Tongji Medical College of Huazhong University of Science and Technology. The mice were provided with standard diet and drinking water. The room temperature was controlled at 23±2° C. After 7 days of adaptive feeding, the mice were administered by intragastric administration. The mice were divided into a control group (administered with distilled water), a model group (administered with distilled water), a high dose group (KD-400 group, 400 mg/kg KD), a medium dose group (KD-200 group, 200 mg/kg KD) and a low dose group (KD-100 group, 100 mg/kg KD), ten mice each group. The mice were weighed the next day, and were continuously administered with above drugs respectively for 10 days. One hour after the last gavage, the mice were injected intraperitoneally (the control group was injected with the same amount of normal saline). The agent for the intraperitoneal injection was galactosamine (D-GalN, 500 mg/kg)+lipopolysaccharide (LPS, Eschericia coli 0111: B4, 5 ug/kg), all purchased from Sigma-Aldrich.

[2] = test system: C57BL/6 mice with HFFD nonalcoholic fatty liver; experiment: Nonalcoholic fatty liver induced by high-fat and high fructose diet (HFFD); type: in vivo
Procedure: 60 SPF male C57BL/6 mice aged 4 weeks were raised in the SPF experimental animal center of Tongji Medical College of Huazhong University of Science and Technology. They were provided with standard diet and drinking water. The room temperature was controlled at 23±2° C. After 7 days of adaptive feeding, the mice were randomly divided into a control group with normal diet and a high-fat and high fructose diet group (40% fat, 40% fructose, 20% protein, HFFD). […] The mice were fed according to the groups, and the control group and the model group were fed with the same dose of normal saline for 4 weeks. […] The development of nonalcoholic fatty liver disease is closely related to the lipid levels of the liver and serum.

[3] = test system: SD mice with ANIT induced intrahepatic cholestasis; experiment: ANIT-induced intrahepatic cholestasis; type: in vivo
Procedure: 42 SPF SD mice were purchased and raised in the SPF experimental animal center of Tongji Medical College of Huazhong University of Science and Technology. They were provided with standard diet and drinking water. The room temperature was controlled at 23±2° C. After 3 days of adaptive feeding, they were given drugs by intragastric administration. 42 SD mice were randomly divided into 7 groups (normal control group, ANIT model group, KD low-dose group, KD medium dose group, KD high-dose group, UDCA positive control group and KD negative control group), 6 mice in each group were weighed and recorded daily. […] Thereafter, the drug was given again every 24 hours for 3 times, and the animals in each group were fasted (water was provided) after the third time. 72 hours later, the animals were killed and samples were collected.

[4] = test system: hepatic stellate cells (HSC-T6) activated by TGF-β1; experiment: Hepatic stellate cells (HSC-T6) activated by TGF-β1; type: cell-based; conditions: different concentrations of KD
Description: HSCs are important cells involved in liver fibrosis. The activation of HSCs is a key element of the development of liver fibrosis, and its apoptosis can reverse liver fibrosis. Different concentrations of KD were used to […] the hepatic stellate cells (HSC-T6) activated by TGF-β1.

[5] = test system: FVB/N mice with serine/threonine kinase (AKT) overexpressed in the liver (NAFL-NASH-liver fibrosis); conditions: for Diameter of hepatic portal vein / Diameter of inferior vena cava / Length of the spleen / Oblique diameter of right lobe of liver / Thickness of the left lobe of liver / Thickness of the spleen: KD 30 mg/kg, type B ultrasound
Procedure: The serine/threonine kinase (AKT) and transposase plasmids were injected into the liver of the mice by a transposition system through hydrodynamics. The serine/threonine kinase was specifically overexpressed in the liver, and the mice except the control group were modeled. One week later, nonalcoholic fatty liver (NAFL) was formed; two weeks later, steatohepatitis (NASH) was formed; and four weeks later, a primary hepatic fibrosis model was established. In the formation of NAFL-NASH-liver fibrosis, the therapeutic effect of KD was observed.

[6] = low, medium and high dose of KD

O=C1C[C@@H](O[C@@H]2O[C@H](CO)[C@@H](O)[C@H](O)[C@H]2O)CO1 [KD]
bleeding and swelling of the liver (appearance) ([1]; KD 100-400 mg/kg, 10 days, gavage, silymarin dose not given): can significantly improve the bleeding and swelling of the liver
inflammatory cytokines TNF-α, IL-12p70, IFN-γ (flow cytometry kit) ([1]; high, medium and low dose groups): had significant anti-inflammatory effect
liver histopathological damage (H&E staining) ([1]; high, middle and low KD dose groups): can reduce liver histopathological damage
apoptotic marker proteins PARP and C-C3 (Western blot) ([1]; high-dose group): could reduce abnormal apoptosis of hepatocytes; also recorded: could down regulate the apoptotic protein
apoptosis of liver cells (Tunel fluorescence staining) ([1]; mouse, in vivo): could inhibit abnormal apoptosis of the liver cells
development of acute liver failure (overall) ([1]; mouse, in vivo): can effectively prevent the development of acute liver failure and reduce liver damage
endoplasmic reticulum stress, expansion and vesiculation ([1]; mouse, in vivo): could down-regulate the process
liver weight/body weight ([1]; mouse, in vivo): could improve the weight gain of liver bleeding
mitochondrial structure of the liver (transmission electron microscopy) ([1]; mouse, in vivo): the mitochondrial structure of the liver of the mice was protected
oxidative stress injuries (MDA, SOD) ([1]; mouse, in vivo): protect the mice from the oxidative stress injuries
free fatty acid level in the serum ([2]; each dose of KD): could significantly inhibit the level of free fatty acids; also recorded: could significantly inhibit the free fatty acid level in the serum
triglyceride in the liver ([2]; each dose of KD): could significantly inhibit the level of triglyceride in the liver
expression level of total macrophage marker molecule F4/80 ([2]; high dose KD): inhibited the expression level of total macrophage marker molecule F4/80; also recorded: could inhibit the expression level of the total macrophage marker molecule F4/80
liver lipid degeneration, size and number of lipid droplets (photos, H&E staining) ([2]; high, middle and low dose groups, 4 weeks): could significantly reduce liver lipid denaturation induced by high-fat and high-fructose diet and reduce the size and number of lipid droplets in liver; also recorded: could significantly reduce the lipid degeneration and inhibit the size and number of lipid droplets
secretion of anti-inflammatory cytokine IL-10 in serum [2, 6]: promoted the secretion of the anti-inflammatory cytokine IL-10; also recorded: increase the secretion of anti-inflammatory cytokine IL-10
secretion of proinflammatory cytokines IL-6, MCP-1, IFN-γ, TNF-α and IL-2 in serum [2, 6]: significantly inhibited the secretion of pro-inflammatory cytokines IL6, MCP-1, IFN-γ, TNF-α and IL-2; also recorded: can significantly inhibit the secretion of proinflammatory cytokines IL-6, MCP-1, IFN-γ, TNF-α and IL-2
total cholesterol in liver and serum ([2]; low, medium and high doses of KD): significantly inhibited; also recorded: significantly reduced
serum LDL level ([2]; low-dose KD): could significantly inhibit the level of serum LDL in mice
expression of COX-2 and M1-type macrophage molecules IL6 and IFN ([2]; medium and high dose KD): significantly inhibited the expression level of inflammatory molecule COX-2; also recorded: could significantly inhibit the expression level of inflammatory molecule COX-2 and the inflammatory M1-type macrophage molecules IL6 and IFN
expression of M2-type macrophage marker molecules CD206, ARG1 and IL1β ([2]; medium and high dose KD): promoted the expression of anti-inflammatory M2-type macrophage marker molecules CD206, ARG1 and IL1; also recorded: promote the expression of anti-inflammatory M2-type macrophage marker molecules CD206, ARG1 and IL1β
therapeutic effect on nonalcoholic fatty liver (overall, vs silymarin 50 mg/kg) ([2]; mouse, in vivo): the therapeutic effect was better than that of silymarin; also recorded: significantly better than that of silymarin; also recorded: has a good therapeutic effect on non-alcoholic fatty liver
plasma biochemical indexes ([3]; 100 mg/kg KD to normal mice): did not change
plasma color ([3]; KD 50, 100, 200 mg/kg or UDCA 80 mg/kg by gavage): turned light yellow similar to that of the normal control group
expression of Fxr and Cyp7a1 genes ([3]; cholestasis mice, high-dose KD): can significantly up regulate the expression of Fxr and Cyp7a1 genes
expression of Bsep, Mrp2 and Mrp3 genes ([3]; cholestasis mice, medium and high-dose KD): can significantly up regulate the expression of Bsep, Mrp2 and Mrp3 genes
hepatic sinusoid and inflammatory cell infiltration (HE staining) ([3]; different doses of KD, UDCA treatment group): the expansion of hepatic sinusoid was improved and the infiltration of inflammatory cells was reduced
plasma ALT, AST, AKP, TBIL and DBIL ([3]; low, medium and high doses of KD, 80 mg/kg UDCA): can significantly reduce ALT, AST, AKP, TBIL and DBIL
plasma TBA ([3]; medium and high doses of KD, 80 mg/kg UDCA): can significantly reduce TBA
ANIT-induced intrahepatic cholestasis liver injury (overall) ([3]; mouse, in vivo): can alleviate the liver injury induced by ANIT; also recorded: has a good therapeutic effect on ANIT-induced intrahepatic cholestasis liver injury
apoptosis of HSC-T6 [4]: promote its apoptosis
cell cycle of HSC-T6 [4]: could block the cell cycle of the HSC-T6 in the G0/G1 phase
proliferation of HSC-T6 [4]: inhibit its proliferation
liver histopathological damage (H&E staining) ([5]; 30, 20 and 10 mg/kg KD): could reduce liver histopathological damage
Diameter of hepatic portal vein ([5]; Liver fibrosis stage): 0.65 ± 0.07 mm
Diameter of inferior vena cava ([5]; Liver fibrosis stage): 1.15 ± 0.07 mm
Length of the spleen ([5]; Liver fibrosis stage): 5.40 ± 0.71 mm
Oblique diameter of right lobe of liver ([5]; Liver fibrosis stage): 8.35 ± 0.78 mm
Thickness of the left lobe of liver ([5]; Liver fibrosis stage): 3.65 ± 0.49 mm
Thickness of the spleen ([5]; Liver fibrosis stage): 1.50 ± 0.14 mm
Diameter of hepatic portal vein ([5]; NAFL stage): 0.75 ± 0.07 mm
Diameter of inferior vena cava ([5]; NAFL stage): 1.50 ± 0.14 mm
Length of the spleen ([5]; NAFL stage): 5.40 ± 0.99 mm
Oblique diameter of right lobe of liver ([5]; NAFL stage): 7.25 ± 0.21 mm
Thickness of the left lobe of liver ([5]; NAFL stage): 4.35 ± 1.20 mm
Thickness of the spleen ([5]; NAFL stage): 1.65 ± 0.07 mm
IFN-γ ([5]; NASH, KD 10 mg/kg): 36.71 ± 0.32^ΔΔ pg/mL
